Measurements from patent publication US8278469B2, “17-hydroxy-17-pentafluoroethyl-estra-4,9(10)-dien-11-aryl derivatives, method of production thereof and use thereof for the treatment of diseases” (Bayer Pharma Aktiengesellschaft, priority 2009, dated 2012).

Columns and labels:
[1] = Chemical stability against temperature, light and oxidative stress; assay type: physicochemical; details: compared with the analogue with an alkanoyl or hydroxyalkanoyl group
[2] = molecular target: T1, human progesterone receptor B (PR-B) (Homo sapiens, UniProt P06401); assay: Progesterone receptor-antagonistic action in stable transfectants of SK-N-MC cells with human PR-B and MTV-LUC reporter; assay type: cell-based; details: SK-N-MC, 24 h, read-out: Progesterone receptor B (PR-B) Efficacy
T1 construct: expressed in transfected cells; host or cells: SK-N-MC human neuroblastoma cells, stably transfected with pRChPR-B-neo and pMMTV-LUC
T1 sequence (P06401 1-933): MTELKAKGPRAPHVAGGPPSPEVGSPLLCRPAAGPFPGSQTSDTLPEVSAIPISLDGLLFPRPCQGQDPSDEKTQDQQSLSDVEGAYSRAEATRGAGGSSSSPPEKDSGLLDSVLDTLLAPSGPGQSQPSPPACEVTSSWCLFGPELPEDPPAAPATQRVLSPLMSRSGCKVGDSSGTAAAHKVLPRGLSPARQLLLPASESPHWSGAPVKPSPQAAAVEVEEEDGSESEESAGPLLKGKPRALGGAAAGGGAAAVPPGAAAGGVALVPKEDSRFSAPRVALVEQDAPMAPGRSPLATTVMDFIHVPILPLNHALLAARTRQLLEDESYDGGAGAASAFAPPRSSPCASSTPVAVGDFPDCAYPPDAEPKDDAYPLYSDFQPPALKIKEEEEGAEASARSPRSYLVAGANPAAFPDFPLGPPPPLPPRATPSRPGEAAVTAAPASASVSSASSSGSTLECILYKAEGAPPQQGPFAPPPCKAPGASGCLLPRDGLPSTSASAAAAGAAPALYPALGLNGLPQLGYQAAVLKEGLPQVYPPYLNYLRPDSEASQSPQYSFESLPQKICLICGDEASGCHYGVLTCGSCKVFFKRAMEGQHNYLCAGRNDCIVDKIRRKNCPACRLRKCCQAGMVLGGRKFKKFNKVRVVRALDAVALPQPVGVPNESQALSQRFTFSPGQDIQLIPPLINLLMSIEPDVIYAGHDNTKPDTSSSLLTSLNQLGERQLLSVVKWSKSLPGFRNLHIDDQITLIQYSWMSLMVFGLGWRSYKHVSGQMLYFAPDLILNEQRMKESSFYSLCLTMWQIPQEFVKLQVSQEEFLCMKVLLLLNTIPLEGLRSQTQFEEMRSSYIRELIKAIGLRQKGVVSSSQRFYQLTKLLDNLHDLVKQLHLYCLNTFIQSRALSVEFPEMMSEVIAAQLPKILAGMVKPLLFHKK
Procedure: Progesterone Receptor-Antagonistic Action in Stable Transfectants of Human Neuroblastoma Cells (SK-N-MC Cells) with the Human Progesterone A or Progesterone B Receptor and an MTV-LUC Reporter Construct
SK-N-MC cells (human neuroblastoma cells), which have been stably transfected with plasmids, which express the human progesterone receptor B (pRChPR-B-neo) or the human progesterone receptor A (pRChPR-A-neo) and a reporter construct (pMMTV-LUC), were incubated for 24 hours either in the absence (negative control) or in the presence of increasing amounts of the respective test compound (0.01 nmol/l, 0.1 nmol/l, 1 nmol/l, 10 nmol/l, 100 nmol/l and 1 μmol/l), in order to determine the agonistic efficacy. As positive control of reporter gene induction, the cells were treated with the synthetic gestagen promegestone (0.01 nmol/l, 0.1 nmol/l, 1 nmol/l, 10 nmol/l, 100 nmol/l and 1 μmol/l). For determination of the antagonistic activity, the cells were treated with 0.1 nmol/l promegestone and additionally with increasing amounts of the respective test compound (0.01 nmol/l, 0.1 nmol/l, 1 nmol/l, 10 nmol/l, 100 nmol/l and 1 μmol/l). The activity of the LUC reporter gene (LUC=luciferase) was determined in the cell lysates and was measured as RLU (relative light units). All measured values are given as percentage efficacy and as EC50 or IC50 concentrations.
11β-(4-Acetylphenyl)-20,20,21,21,21-pentafluoro-17-hydroxy-19-nor-17α-pregna-4,9-dien-3-one and 20,20,21,21,21-pentafluoro-17-hydroxy-11β-[4-(hydroxyacetyl)phenyl]-19-nor-17α-pregna-4,9-dien-3-one, very potent and therefore preferred examples from WO98/34947 and WO2008/058767, were tested as comparative compounds along with the test compound.

[3] = Metabolic stability in human liver microsomes (HLM); assay type: in vitro ADME; details: HLM 0.5 mg/ml protein, 1 μM, 37° C., pH 7.4; well-stirred model, phase I reactions
Procedure: Metabolic Stability of (11β,17β)-17-hydroxy-11-[4-(methylsulphonyl)phenyl]-17-(pentafluoroethyl)estra-4,9-dien-3-one and (11β,17β)-17-hydroxy-11-[4′-(methylsulphonyl)-biphenyl-4-4-yl]-17-(pentafluoroethyl)estra-4,9-dien-3-one in Human Liver Microsomes (HLM)
Isolated human liver microsomes (HLM) were used for assessing the metabolic stability of compounds of general formula I.
Incubations were carried out with 2.4 ml of HLM solution (0.5 mg/ml protein content), 30 μl of the test compound (final concentration 1 μM) and 0.6 ml of the cofactor mixture (=NADPH-generating system of 3 IU glucose-6-phosphate dehydrogenase, 14.6 mg glucose-6-phosphate, 1.2 mg NADP) at 37° C. in 100 mM phosphate buffer at pH 7.4. Samples are taken at 6 time points (2-60 min), precipitated with an equal volume of methanol and the recovery of the test substances used in the supernatant is determined by LC-MS/MS analysis. The intrinsic clearance of the substance in the liver microsome preparation can be calculated from the half-life found for the breakdown of the substance. Based on this, together with various physiological characteristics according to the well-stirred model, it is then possible to predict a (metabolic) in vivo clearance with respect to phase I reactions. […]

rodents and non-rodents = details: in vivo

Q: With `C[C@]12C[C@H](c3ccc(S(C)(=O)=O)cc3)C3=C4CCC(=O)C=C4CC[C@H]3[C@@H]1CC[C@@]2(O)C(F)(F)C(F)(F)F` [Example 4, (11β,17β)-17-Hydroxy-11-[4-(methylsulphonyl)phenyl]-17-(pentafluoroethyl)estra-4,9-dien-3-one] as the compound, how does the Oxidation sensitivity [1] read?
A: surprisingly low oxidation sensitivity

Q: And the “Stability under the influence of UV light” value [1]?
A: surprisingly high stability

Q: And the “Stability under thermal load” value [1]?
A: surprisingly high stability

Q: What about the Emax [2] of the same compound?
A: 100%

Q: What about the “(metabolic) in vivo clearance in humans predicted” value [3] of the same compound?
A: 0.1 L/h/kg

Q: What about the “Safety profile (in acute and chronic tests)” value (rodents and non-rodents) of the same compound?
A: especially favourable safety profile
